Among the test systems are NCI/ADR-RES ovarian; NCI-H460 lung; T-47D breast; NCI-H522 lung; UACC-257 melanoma; LOX IMVI melanoma; KM12 colon; SK-OV-3 ovarian; SF-295 CNS; PC-3 prostate.
What all share (experiment): DTP human tumour cell line panel, 48 h

Values joined by “and” are separate entries in the source; they are usually repeats but may differ in a detail not shown here. Equal entries are not always repeated.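 Results reflect a 48-hour exposure of cells in 96-well plates to compound at five concentrations. GI50 is the concentration that inhibits growth by half. At the TGI there is no net growth.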 Bounds are passed on as bounds.

Drawing on PubChem BioAssay (NCI), this text covers GI50 and TGI for 16 compounds.

What is called GI50 is the concentration that inhibits growth by half. As a reminder, the TGI is the concentration giving total growth inhibition. For the compound `Oc1c(Cl)cc(Cl)cc1/C=N/Nc1nnc(N/N=C/c2cc(Cl)cc(Cl)c2O)c2ccccc12`, the GI50 was 363 nM in the assay on NCI/ADR-RES ovarian; 340 nM in the assay on NCI-H460 lung; 506 nM in the assay on T-47D breast; 366 nM in the assay with NCI-H522 lung; 1.44 µM in the assay on UACC-257 melanoma; 225 nM in the assay on LOX IMVI melanoma. Besides, the GI50 is 0.335 µM in the assay on KM12 colon and 563 nM in the assay on SK-OV-3 ovarian. In addition, the TGI is over 100000 nM with NCI/ADR-RES ovarian; 2.26 µM with NCI-H460 lung; over 100 µM in the assay on T-47D breast; 6.7 µM in the assay with NCI-H522 lung; over 100 µM with UACC-257 melanoma; 0.586 µM with LOX IMVI melanoma. Besides, the total growth inhibition concentration (TGI) with KM12 colon was over 100 µM; in the assay on SK-OV-3 ovarian it was over 81.7 µM.
For the compound `O=C1C(=C([O-])c2ccccc2)C(=O)c2ccccc21.O=C1C(=C([O-])c2ccccc2)C(=O)c2ccccc21.[Mn+2]`, the GI50 with SF-295 CNS is 74.6 µM; in the assay on UACC-257 melanoma, 22.6 µM; in the assay on LOX IMVI melanoma, over 100000 nM; with KM12 colon it was 72.9 µM. Further, the TGI in the assay with SF-295 CNS is over 100 µM; in the assay on UACC-257 melanoma it was 48.4 µM; in the assay with LOX IMVI melanoma, over 100 µM; in the assay on KM12 colon it was over 100 µM.
`O=C(/C=C/c1ccccc1O)c1ccc([N+](=O)[O-])cc1`: the TGI with NCI-H460 lung is 50.5 µM; with SF-295 CNS it was 56.5 µM; with NCI-H522 lung it was 33.1 µM; with UACC-257 melanoma it was over 100 µM; in the assay with LOX IMVI melanoma, 33.4 µM; in the assay with KM12 colon, 40.4 µM. The TGI in the assay with SK-OV-3 ovarian worked out at 70.7 µM.
In the case of `NS(=O)(=O)c1ccc(NC(=O)Cc2nc3ccccc3s2)cc1`, the TGI in the assay on NCI-H460 lung turned out to be 35.6 µM; with SF-295 CNS it was 33.2 µM; in the assay on NCI-H522 lung, 33.2 µM; with UACC-257 melanoma it was 29.6 µM; with KM12 colon, 30.8 µM; with SK-OV-3 ovarian, 40.5 µM.
On to `Cc1ccc(/C=C(\NC(=O)c2ccccc2)c2nc3ccccc3[nH]2)cc1`, for which the TGI in the assay with NCI-H460 lung, in the assay on SF-295 CNS, in the assay on NCI-H522 lung, in the assay with UACC-257 melanoma and in the assay on KM12 colon was over 100 µM throughout.
Take `CCOc1ccc(/C=C/c2cc(OC)c(OC)c(OC)c2)cc1`: the TGI is over 29.6 µM in the assay on NCI-H460 lung; 16.9 µM in the assay on SF-295 CNS; 2.21 µM with NCI-H522 lung; over 100 µM in the assay on UACC-257 melanoma; over 100 µM in the assay on LOX IMVI melanoma; over 41.6 µM in the assay with KM12 colon. The TGI with SK-OV-3 ovarian is over 30.2 µM.
Regarding `CC(=O)OCCOCNC(=S)N/N=C/c1cc([N+](=O)[O-])ccc1O`, the TGI in the assay with NCI-H460 lung, in the assay with SF-295 CNS, in the assay on NCI-H522 lung, in the assay with UACC-257 melanoma, with LOX IMVI melanoma and in the assay on KM12 colon was over 100 µM throughout. For the same compound, in the assay with SK-OV-3 ovarian, the TGI was over 100 µM.
Regarding `O=C(Cc1nc2ccccc2o1)C(=O)Nc1cccc(Cl)c1`, the TGI in the assay with NCI-H460 lung, in the assay with SF-295 CNS, with NCI-H522 lung, in the assay on UACC-257 melanoma, with KM12 colon and in the assay on SK-OV-3 ovarian was over 100 µM each time.
Regarding `Cc1[nH]c2ccccc2c1CC/C(=N\Nc1ccccc1)c1ccccc1`, the concentration for total growth inhibition (TGI) in the assay with NCI-H460 lung, with SF-295 CNS, in the assay with UACC-257 melanoma, in the assay on KM12 colon and in the assay with SK-OV-3 ovarian was over 100 µM each time.
In the case of `c1ccncc1`, the total growth inhibition concentration (TGI) in the assay on NCI-H460 lung, with SF-295 CNS, with NCI-H522 lung, with UACC-257 melanoma, in the assay on LOX IMVI melanoma and with KM12 colon was over 100 µM throughout. This compound had a TGI with SK-OV-3 ovarian of over 100 µM.
For `CCOC(=O)C(CCC(N)=O)(CCC(=O)OC)C(=O)OCC`, the TGI with NCI-H460 lung, with SF-295 CNS, with NCI-H522 lung, in the assay on UACC-257 melanoma, with LOX IMVI melanoma and with KM12 colon was over 100 µM in each case. In the assay with SK-OV-3 ovarian, the TGI was over 100 µM.
Take `NC1CCCCC1N.O=C1C=C/C(=C(/c2ccc(O)c(Br)c2)c2ccccc2S(=O)(=O)[O-])C=C1Br.O=C1C=C/C(=C(/c2ccc(O)c(Br)c2)c2ccccc2S(=O)(=O)[O-])C=C1Br.[Pt+4]`: the GI50 was 1540 nM in the assay on NCI-H460 lung; 4.99 µM in the assay on SF-295 CNS; 1900 nM in the assay with NCI-H522 lung; 5.38 µM in the assay with UACC-257 melanoma; 3180 nM in the assay with LOX IMVI melanoma; 32.6 µM with KM12 colon. Besides, in the assay on SK-OV-3 ovarian, the GI50 is 54200 nM. The TGI in the assay on NCI-H460 lung is over 100 µM; in the assay on SF-295 CNS, over 100 µM; with NCI-H522 lung, 22.6 µM; in the assay on UACC-257 melanoma it was over 100 µM; in the assay with LOX IMVI melanoma it was over 100 µM; in the assay on KM12 colon it was over 100 µM. This compound also returned a TGI in the assay on SK-OV-3 ovarian of over 100 µM.
As to `COC(=O)c1ncc2c(=O)[nH]c3ccccc3c2c1C(=O)OC`, the TGI in the assay on NCI-H460 lung is 47.3 µM; in the assay with SF-295 CNS, over 100 µM; in the assay with UACC-257 melanoma, over 100 µM; in the assay with LOX IMVI melanoma, over 100 µM; in the assay on KM12 colon, over 100 µM.
For the compound `CC(C)(C)C(=O)Nc1cccc2oc(-c3ccccc3)cc12`, the TGI in the assay on NCI-H460 lung, in the assay with SF-295 CNS, with UACC-257 melanoma, with KM12 colon and with SK-OV-3 ovarian was over 100 µM throughout.
Consider `COc1cccc(-c2cc(=O)c3cc(N4CCOCC4)ccc3[nH]2)c1`, for which the TGI in the assay with NCI/ADR-RES ovarian was 271 nM and 751 nM; with NCI-H460 lung it was over 100 µM; with NCI-H522 lung it was 0.0395 µM and 0.0852 µM; in the assay with UACC-257 melanoma, over 100 µM; with SK-OV-3 ovarian, 36.8 µM; in the assay with PC-3 prostate it was over 100 µM. The GI50 in the assay on NCI-H460 lung is 272 nM; in the assay on SF-295 CNS, 0.204 µM; in the assay with NCI-H522 lung it was 20.9 nM; in the assay with UACC-257 melanoma, 0.02 µM; in the assay with LOX IMVI melanoma, 26.1 nM; with KM12 colon, 0.0243 µM. The GI50 is 26.8 nM and 44 nM in the assay with SK-OV-3 ovarian; 28.1 nM in the assay with PC-3 prostate.
Consider `COc1cc(CC2c3cc(OC)c(OC)cc3CCN2C)ccc1O` (centres undefined), for which the TGI in the assay on NCI-H460 lung, in the assay on SF-295 CNS, with NCI-H522 lung, in the assay on UACC-257 melanoma and in the assay with KM12 colon was over 100 µM throughout.
